Laboratory results: ChEMBL document CHEMBL1201862, “PubChem BioAssay data set” (2004)
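Grown in 96-well plates, cells were treated for 48 hours with each compound at five concentrations. Insufficient inhibition: endpoint recorded as highest concentration tested. Here, GI50 denotes the concentration required for 50% inhibition of growth.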 Active and inactive are the calls of the source. Cut-off read from the data, not from the text of the source: active = GI50 up to about 1.1 µM and inactive = higher.

Columns and labels:
Assay in all cases: NCI-60 cell line screen, 48 h
HL-60 = tested on: HL-60
OVCAR-5 = tested on: OVCAR-5
OVCAR-8 = tested on: OVCAR-8
U-251 = tested on: U-251
RXF 393 = tested on: RXF 393
UACC-62 = tested on: UACC-62
TK-10 = tested on: TK-10
M14 = tested on: M14
SK-MEL-2 = tested on: SK-MEL-2
COLO 205 = tested on: COLO 205
IGROV-1 = tested on: IGROV-1
SK-OV-3 = tested on: SK-OV-3
UO-31 = tested on: UO-31
SF-295 = tested on: SF-295
HCT-116 = tested on: HCT-116
HOP-92 = tested on: HOP-92
ACHN = tested on: ACHN
786-0 = tested on: 786-0

SMILES | GI50 (HL-60) | GI50 (OVCAR-5) | GI50 (OVCAR-8) | GI50 (U-251) | GI50 (RXF 393) | GI50 (UACC-62) | GI50 (TK-10) | GI50 (M14) | GI50 (SK-MEL-2) | GI50 (COLO 205) | GI50 (IGROV-1) | GI50 (SK-OV-3) | GI50 (UO-31) | GI50 (SF-295) | GI50 (HCT-116) | GI50 (HOP-92) | GI50 (ACHN) | GI50 (786-0)
O=C(NCc1cccnc1)C1COc2cc(-c3cc(=O)c4ccccc4o3)ccc2O1 (stereo not given) | > 46.5 µM (inactive) | > 100 µM (inactive) | 3.64 µM (inactive) | 5.93 µM (inactive) | 28.7 µM (inactive) | 30.4 µM (inactive) | > 57.9 µM (inactive) | 5.27 µM (inactive) | 3.4 µM (inactive) | > 100 µM (inactive) | > 66.5 µM (inactive) | > 100 µM (inactive) | > 43.9 µM (inactive) | 7.6 µM (inactive) | 21.7 µM (inactive) | > 75.3 µM (inactive) | 22.5 µM (inactive) | 7.19 µM (inactive)
Nc1nc(N)c(-c2ccccc2)c(C(=O)Nc2ccccc2)n1 |  | > 100 µM (inactive) | > 100 µM (inactive) | > 100 µM (inactive) | > 100 µM (inactive) | > 100 µM (inactive) | > 100 µM (inactive) | > 100 µM (inactive) | > 100 µM (inactive) | > 100 µM (inactive) | > 100 µM (inactive) | > 100 µM (inactive) | > 100 µM (inactive) |  | > 100 µM (inactive) | > 100 µM (inactive) | > 100 µM (inactive) | > 100 µM (inactive)
CC(C)(C)C1CC[C@H]2c3c([nH]c4ccccc34)[C@H]3C(=O)N(c4ccc(F)cc4)C(=O)[C@H]3[C@H]2C1 (stereo not given in full) |  | 28.9 µM (inactive) | 12.1 µM (inactive) | 8.75 µM (inactive) | 27.4 µM (inactive) | 15.5 µM (inactive) | 16.3 µM (inactive) | 18.5 µM (inactive) | 15.8 µM (inactive) | 14.5 µM (inactive) | 17 µM (inactive) | 17.8 µM (inactive) | 15.8 µM (inactive) | 14.8 µM (inactive) | 11.6 µM (inactive) | 28.1 µM (inactive) | 14.1 µM (inactive) | 11.3 µM (inactive)
O=C(O/N=C1/CCCC/C1=C\c1ccccc1)c1ccc(Cl)c(Cl)c1 | 14.5 µM (inactive) | 69.2 µM (inactive) | 17.9 µM (inactive) | 17.3 µM (inactive) | 27.7 µM (inactive) | 17.1 µM (inactive) | 23.2 µM (inactive) | > 100 µM (inactive) | > 100 µM (inactive) | 28.2 µM (inactive) | 21.5 µM (inactive) | > 100 µM (inactive) | 17.9 µM (inactive) | 31.8 µM (inactive) | 13.6 µM (inactive) | 26.8 µM (inactive) | 15.5 µM (inactive) | 30.2 µM (inactive)
Nc1ccc(C(=O)NN2C(=O)C(Cl)C2c2cc(Br)cc(Br)c2O)cc1 (stereo not given) | 1.31 µM (inactive) | 40.2 µM (inactive) | 14.7 µM (inactive) | 11.1 µM (inactive) | 13.3 µM (inactive) | 4.44 µM (inactive) | 32.2 µM (inactive) | 12.8 µM (inactive) | 10.6 µM (inactive) | 48.1 µM (inactive) | 13.3 µM (inactive) | 11.2 µM (inactive) | 3.34 µM (inactive) | 10.3 µM (inactive) | 6.79 µM (inactive) | 24.2 µM (inactive) | 5.74 µM (inactive) | 8.3 µM (inactive)
CC(C)CCCC(C)C1CCC2C3CC([N+](=O)[O-])=C4CC(O)CCC4(C)C3CCC12C (stereo not given) | 25 µM (inactive) |  | 21.7 µM (inactive) | 15.5 µM (inactive) | 23.6 µM (inactive) | 19.9 µM (inactive) | 21 µM (inactive) | 13.4 µM (inactive) | 12.4 µM (inactive) | 24.3 µM (inactive) | 23.8 µM (inactive) |  |  | 14.2 µM (inactive) | 14.8 µM (inactive) | 23.3 µM (inactive) | 43.4 µM (inactive) | 16.9 µM (inactive)
O=C(O/N=C1/CCC/C1=C\c1ccccc1)c1ccc(Cl)c(Cl)c1 | > 100 µM (inactive) | > 100 µM (inactive) | > 100 µM (inactive) | > 100 µM (inactive) | > 100 µM (inactive) | > 100 µM (inactive) | > 100 µM (inactive) | > 100 µM (inactive) | > 100 µM (inactive) | > 100 µM (inactive) | > 100 µM (inactive) | > 100 µM (inactive) | > 100 µM (inactive) | > 100 µM (inactive) | > 100 µM (inactive) | > 100 µM (inactive) | > 100 µM (inactive) | > 100 µM (inactive)
COc1ccc(/C=C/C(=O)c2sc(-n3nc(-c4ccccc4)cc3-c3ccccc3)nc2C)cc1 | > 10 µM (inactive) | > 10 µM (inactive) | > 10 µM (inactive) | 62.2 µM (inactive) | > 10 µM (inactive) | > 10 µM (inactive) | > 10 µM (inactive) | > 10 µM (inactive) | > 10 µM (inactive) | > 10 µM (inactive) | > 10 µM (inactive) | > 10 µM (inactive) | 31.6 µM (inactive) | > 10 µM (inactive) | > 10 µM (inactive) | > 10 µM (inactive) | > 10 µM (inactive) | > 10 µM (inactive)
COc1ccc2c3c1O[C@]1(C)C34CCN(C)C(C2)C42C=C[C@@]1(OC)c1c(O)ccc(O)c12 | 17.8 µM (inactive) | > 100 µM (inactive) | > 100 µM (inactive) | > 100 µM (inactive) | > 100 µM (inactive) |  | > 100 µM (inactive) |  | > 100 µM (inactive) | > 100 µM (inactive) | > 100 µM (inactive) | > 100 µM (inactive) | > 100 µM (inactive) | > 100 µM (inactive) | > 100 µM (inactive) | 59.3 µM (inactive) | > 100 µM (inactive) | 95.7 µM (inactive)
Cc1cc(Cl)ccc1NC(=O)CC/C(CC(=O)C(C)C)=N\NC(=O)C[n+]1ccccc1 | > 100 µM (inactive) | > 100 µM (inactive) | > 100 µM (inactive) | > 100 µM (inactive) | > 100 µM (inactive) | > 100 µM (inactive) | > 100 µM (inactive) | > 100 µM (inactive) | > 100 µM (inactive) | > 100 µM (inactive) | > 100 µM (inactive) | > 100 µM (inactive) | > 100 µM (inactive) | > 100 µM (inactive) | > 100 µM (inactive) | > 100 µM (inactive) | > 100 µM (inactive) | > 100 µM (inactive)
O=c1oc2ccccc2c(O)c1C(C/C(CCN1CCCC1)=N\Nc1ccccc1)c1ccccc1 (stereo not given) | 24.2 µM (inactive) | > 100 µM (inactive) | > 100 µM (inactive) | 78.2 µM (inactive) | 32.7 µM (inactive) | 76 µM (inactive) | > 100 µM (inactive) | 93.1 µM (inactive) | 51.3 µM (inactive) |  | > 100 µM (inactive) | 94.4 µM (inactive) | 53.5 µM (inactive) | 55.7 µM (inactive) | 82.6 µM (inactive) | 16.3 µM (inactive) | 54.8 µM (inactive) | > 100 µM (inactive)
O=S(=O)(SCCCCSS(=O)(=O)c1ccc(Cl)cc1)c1ccc(Cl)cc1 | 3.24 µM (inactive) | 16.7 µM (inactive) | 12.2 µM (inactive) | 8.36 µM (inactive) | 16.7 µM (inactive) | 12.2 µM (inactive) | 21.3 µM (inactive) | 14.6 µM (inactive) | 14.9 µM (inactive) | 14.9 µM (inactive) | 5.2 µM (inactive) | 15.3 µM (inactive) | 9.04 µM (inactive) | 3.92 µM (inactive) | 11 µM (inactive) | 8.51 µM (inactive) | 16.3 µM (inactive) | 9.68 µM (inactive)
COc1ccc(NCc2cc(OC)c(OC)c(OC)c2)cc1 | 0.115 µM (active) |  | 0.851 µM (active) | 0.439 µM (active) | 0.342 µM (active) | 0.271 µM (active) |  | 0.457 µM (active) | 0.245 µM (active) | 0.233 µM (active) | 0.631 µM (active) | 0.504 µM (active) |  | 0.242 µM (active) | 0.367 µM (active) | 2.15 µM (inactive) |  | 0.647 µM (active)
c1cnn(CN(Cn2cccn2)Cn2cccn2)c1 | > 100 µM (inactive) |  | > 100 µM (inactive) | > 100 µM (inactive) | > 100 µM (inactive) | 35.9 µM (inactive) | > 100 µM (inactive) | > 100 µM (inactive) | > 100 µM (inactive) | > 100 µM (inactive) |  | > 100 µM (inactive) | > 100 µM (inactive) | > 100 µM (inactive) | > 100 µM (inactive) | > 100 µM (inactive) | > 100 µM (inactive) | > 100 µM (inactive)
CCN1CCC(O)(c2ccc(C)cc2)C(C(=O)c2ccc(C)cc2)C1 (stereo not given) | 20.3 µM (inactive) | 20.2 µM (inactive) | 25.5 µM (inactive) | > 52.5 µM (inactive) |  | > 42.6 µM (inactive) | > 44.5 µM (inactive) | 36.7 µM (inactive) | > 100 µM (inactive) | 23.6 µM (inactive) | > 42.9 µM (inactive) | > 100 µM (inactive) | 28.2 µM (inactive) | > 100 µM (inactive) | 16.7 µM (inactive) | 19.7 µM (inactive) | 17.5 µM (inactive) | 13.5 µM (inactive)
NC1=C(NC(=O)Cc2ccccc2F)C(=O)c2ccccc2C1=O | 88.3 µM (inactive) |  | 39.2 µM (inactive) | 36.5 µM (inactive) | 34.4 µM (inactive) | 37.8 µM (inactive) | 41.2 µM (inactive) | > 100 µM (inactive) | 14.3 µM (inactive) | > 100 µM (inactive) | 38.8 µM (inactive) |  | 92.7 µM (inactive) | 32.6 µM (inactive) | 44 µM (inactive) | 22.3 µM (inactive) | 76.9 µM (inactive) | 27.1 µM (inactive)
